Reference: ChEMBL document CHEMBL1201862, “PubChem BioAssay data set” (2004)
Activity calls are given as the source filed them.

How the values were obtained:
[1] = Luminescent dose response cell-based high throughput screening assay for inhibitors of the Janus kinase 2 mutant JAK2V617F. [Related pubchem assays: 1446 (Primary screen.), 1521 (Confirmation assay.), 1486 (Counter screen.)]; type: functional
Vero [2] = experiment: cells; type: functional; conditions: Chlorocebus sabaeus
Vero [3] = experiment: cells; type: functional, cell-based; conditions: Chlorocebus sabaeus
Estrogen receptor = target: T1, Estrogen receptor (Homo sapiens, UniProt P03372); experiment: ERα coactivator recruitment enhancers – biochemical, TR-FRET, ERα LBD, dose response (AID 737)
T1 sequence (P03372 whole entry): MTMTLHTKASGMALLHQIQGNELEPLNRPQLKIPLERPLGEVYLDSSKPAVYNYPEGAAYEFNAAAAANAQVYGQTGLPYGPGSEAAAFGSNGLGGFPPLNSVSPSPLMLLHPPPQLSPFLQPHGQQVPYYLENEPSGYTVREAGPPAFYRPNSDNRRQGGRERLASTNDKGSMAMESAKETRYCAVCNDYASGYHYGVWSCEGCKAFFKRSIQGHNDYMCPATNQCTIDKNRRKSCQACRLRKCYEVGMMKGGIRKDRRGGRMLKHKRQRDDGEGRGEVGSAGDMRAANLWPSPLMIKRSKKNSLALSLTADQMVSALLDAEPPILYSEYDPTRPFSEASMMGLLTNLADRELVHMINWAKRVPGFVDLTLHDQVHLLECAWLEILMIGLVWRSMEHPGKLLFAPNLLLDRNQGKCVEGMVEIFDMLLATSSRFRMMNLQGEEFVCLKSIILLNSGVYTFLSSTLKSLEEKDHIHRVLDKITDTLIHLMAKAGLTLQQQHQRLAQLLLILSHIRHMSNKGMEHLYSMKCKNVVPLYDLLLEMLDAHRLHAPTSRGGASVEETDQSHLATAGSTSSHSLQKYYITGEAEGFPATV

[4] = target: Solute carrier family 12 member 2/member 5 (Homo sapiens, UniProt P55011+Q9H2X9); experiment: KCC2 and NKCC1 inhibition by rubidium flux, cell-based, NKCC1 counter-screen (AID 1734); type: functional, HEK293
[5] = target: T2, Voltage-gated N-type calcium channel alpha-1B subunit/Amyloid beta A4 precursor protein-binding family A member 1 (Homo sapiens, UniProt Q00975+Q02410); type: protein assay
T2 sequence (Q00975 whole entry): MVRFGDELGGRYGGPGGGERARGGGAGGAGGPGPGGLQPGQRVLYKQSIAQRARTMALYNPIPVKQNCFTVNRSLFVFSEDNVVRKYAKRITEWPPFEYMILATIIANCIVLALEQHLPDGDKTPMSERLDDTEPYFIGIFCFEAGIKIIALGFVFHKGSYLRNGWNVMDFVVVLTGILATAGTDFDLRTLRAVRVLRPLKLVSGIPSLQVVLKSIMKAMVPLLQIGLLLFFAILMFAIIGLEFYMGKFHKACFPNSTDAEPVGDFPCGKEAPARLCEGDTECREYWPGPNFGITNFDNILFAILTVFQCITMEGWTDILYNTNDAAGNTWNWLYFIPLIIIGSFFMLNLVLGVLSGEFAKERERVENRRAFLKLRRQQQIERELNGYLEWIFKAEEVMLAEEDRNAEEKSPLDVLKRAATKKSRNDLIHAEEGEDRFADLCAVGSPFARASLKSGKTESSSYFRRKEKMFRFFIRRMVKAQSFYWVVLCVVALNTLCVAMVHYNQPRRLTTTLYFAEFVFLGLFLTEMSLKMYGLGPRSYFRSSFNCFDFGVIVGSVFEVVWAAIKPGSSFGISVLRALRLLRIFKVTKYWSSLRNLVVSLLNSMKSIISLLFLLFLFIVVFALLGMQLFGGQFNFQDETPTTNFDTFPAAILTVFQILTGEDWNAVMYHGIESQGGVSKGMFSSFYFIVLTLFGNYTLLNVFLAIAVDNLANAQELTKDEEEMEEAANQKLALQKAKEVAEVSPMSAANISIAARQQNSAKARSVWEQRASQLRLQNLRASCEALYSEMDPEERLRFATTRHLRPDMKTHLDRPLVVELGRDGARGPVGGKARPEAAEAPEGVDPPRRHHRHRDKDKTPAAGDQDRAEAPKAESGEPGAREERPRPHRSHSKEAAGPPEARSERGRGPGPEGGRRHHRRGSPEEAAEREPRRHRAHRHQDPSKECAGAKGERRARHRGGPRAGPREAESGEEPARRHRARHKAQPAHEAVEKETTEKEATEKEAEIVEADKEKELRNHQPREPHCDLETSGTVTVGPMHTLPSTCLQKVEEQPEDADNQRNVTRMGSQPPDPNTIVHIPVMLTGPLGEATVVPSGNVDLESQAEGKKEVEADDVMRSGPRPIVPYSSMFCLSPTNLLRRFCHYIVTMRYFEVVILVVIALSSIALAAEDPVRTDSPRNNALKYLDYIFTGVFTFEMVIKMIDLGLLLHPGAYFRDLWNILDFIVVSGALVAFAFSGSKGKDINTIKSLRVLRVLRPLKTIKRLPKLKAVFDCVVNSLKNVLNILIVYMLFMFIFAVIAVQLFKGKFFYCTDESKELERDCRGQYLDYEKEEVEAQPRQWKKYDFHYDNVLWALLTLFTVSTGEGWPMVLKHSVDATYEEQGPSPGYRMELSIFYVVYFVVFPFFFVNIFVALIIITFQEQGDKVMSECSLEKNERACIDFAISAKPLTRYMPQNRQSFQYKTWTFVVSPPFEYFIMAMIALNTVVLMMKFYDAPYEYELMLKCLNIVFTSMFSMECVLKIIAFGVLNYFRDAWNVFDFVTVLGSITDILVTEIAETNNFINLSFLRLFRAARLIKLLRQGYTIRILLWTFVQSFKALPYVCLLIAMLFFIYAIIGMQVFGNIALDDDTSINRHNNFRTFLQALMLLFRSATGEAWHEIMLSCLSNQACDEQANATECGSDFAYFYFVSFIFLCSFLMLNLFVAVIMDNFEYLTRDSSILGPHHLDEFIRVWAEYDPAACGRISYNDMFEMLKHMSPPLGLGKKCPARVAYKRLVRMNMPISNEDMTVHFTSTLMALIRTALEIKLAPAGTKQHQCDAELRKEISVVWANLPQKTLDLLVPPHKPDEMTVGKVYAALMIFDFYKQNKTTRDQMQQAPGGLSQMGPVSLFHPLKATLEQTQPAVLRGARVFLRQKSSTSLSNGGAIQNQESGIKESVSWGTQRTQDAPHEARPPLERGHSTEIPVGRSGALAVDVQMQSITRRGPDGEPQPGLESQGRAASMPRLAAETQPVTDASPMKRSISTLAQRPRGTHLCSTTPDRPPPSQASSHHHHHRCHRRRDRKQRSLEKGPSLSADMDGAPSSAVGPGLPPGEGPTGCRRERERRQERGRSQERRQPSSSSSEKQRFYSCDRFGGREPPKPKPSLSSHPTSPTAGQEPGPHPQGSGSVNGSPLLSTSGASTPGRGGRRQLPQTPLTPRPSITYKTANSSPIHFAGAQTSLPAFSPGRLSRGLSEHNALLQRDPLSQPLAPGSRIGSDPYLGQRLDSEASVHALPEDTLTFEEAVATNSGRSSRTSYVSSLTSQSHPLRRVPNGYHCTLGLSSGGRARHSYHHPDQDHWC
T2 sequence (Q02410 whole entry): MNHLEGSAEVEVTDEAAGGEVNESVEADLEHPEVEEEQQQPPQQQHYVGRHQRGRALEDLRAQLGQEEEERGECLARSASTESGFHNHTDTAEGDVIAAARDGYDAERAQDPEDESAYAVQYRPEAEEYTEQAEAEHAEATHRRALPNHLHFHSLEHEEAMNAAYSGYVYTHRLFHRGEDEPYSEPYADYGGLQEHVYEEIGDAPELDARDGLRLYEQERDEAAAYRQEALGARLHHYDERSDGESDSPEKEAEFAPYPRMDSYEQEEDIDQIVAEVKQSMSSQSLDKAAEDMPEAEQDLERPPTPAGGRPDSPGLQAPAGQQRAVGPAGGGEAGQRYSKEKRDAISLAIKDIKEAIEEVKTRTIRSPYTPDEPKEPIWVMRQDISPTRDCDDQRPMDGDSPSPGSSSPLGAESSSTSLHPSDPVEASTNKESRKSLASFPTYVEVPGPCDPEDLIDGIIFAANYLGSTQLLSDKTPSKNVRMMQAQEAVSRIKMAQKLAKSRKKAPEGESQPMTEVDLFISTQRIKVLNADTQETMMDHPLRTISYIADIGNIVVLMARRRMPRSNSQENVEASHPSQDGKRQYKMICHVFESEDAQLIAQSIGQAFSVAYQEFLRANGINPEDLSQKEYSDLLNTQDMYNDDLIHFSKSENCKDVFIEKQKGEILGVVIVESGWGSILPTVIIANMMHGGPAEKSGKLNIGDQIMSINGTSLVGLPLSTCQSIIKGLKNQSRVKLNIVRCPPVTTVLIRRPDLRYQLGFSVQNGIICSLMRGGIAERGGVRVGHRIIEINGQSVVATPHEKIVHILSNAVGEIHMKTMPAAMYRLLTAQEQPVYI

[6] = target: Glucose-6-phosphate 1-dehydrogenase (Homo sapiens, UniProt P11413); experiment: inhibition of Homo sapiens G6PD, dose series – biochemical, fluorescence, selectivity assay for P. falciparum G6PD inhibitor project, dose response (AID 504792); type: functional
[7] = target: T3, Mannose-6-phosphate isomerase (Homo sapiens, UniProt P34949); experiment: MPI enzyme activity inhibition – biochemical, fluorescence intensity, coupled assay, primary screen (AID 1209)
T3 sequence (P34949 whole entry): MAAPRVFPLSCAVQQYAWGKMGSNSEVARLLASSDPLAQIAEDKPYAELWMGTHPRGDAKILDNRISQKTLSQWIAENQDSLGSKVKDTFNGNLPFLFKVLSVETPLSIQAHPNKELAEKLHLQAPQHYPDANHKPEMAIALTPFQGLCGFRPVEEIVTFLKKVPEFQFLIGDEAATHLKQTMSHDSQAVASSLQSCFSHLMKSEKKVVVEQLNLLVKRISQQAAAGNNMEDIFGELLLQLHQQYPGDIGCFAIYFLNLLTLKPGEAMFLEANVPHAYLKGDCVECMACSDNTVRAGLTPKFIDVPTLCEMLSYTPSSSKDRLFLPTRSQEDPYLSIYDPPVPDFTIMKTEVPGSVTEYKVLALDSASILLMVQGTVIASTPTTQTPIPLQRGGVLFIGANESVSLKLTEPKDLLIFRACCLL

[8] = target: T2, Voltage-gated N-type calcium channel alpha-1B subunit/Amyloid beta A4 precursor protein-binding family A member 1; type: protein assay; remark: listed apart in the source
Vero [9] = experiment: mammalian cell viability reduction – secondary assay, cytotoxicity control for West Nile virus antiviral project, dose response (AID 1650); type: functional; conditions: Chlorocebus sabaeus
Cytochrome P450 2C19 = Cytochrome P450 2C19 (Homo sapiens, UniProt P33261); experiment: qHTS Assay for Inhibitors and Substrates of Cytochrome P450 2C19. [Related pubchem assays: 410 ]; type: ADME; conditions: read-out: Potency
Cytochrome P450 3A4 = Cytochrome P450 3A4 (Homo sapiens, UniProt P08684); conditions: Potency;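 note: confirmatory qHTS run detecting inhibitors and substrates of CYP3A4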
[10] = target: Sphingosine 1-phosphate receptor 2 (Homo sapiens, UniProt O95136); experiment: Dose Response Cell Based Assay for Agonists of the S1P2 Receptor of Purchased Analogues. [Related pubchem assays: 729, 843, 854, 736 ]; type: functional
Sphingosine 1-phosphate receptor 2, sequence (O95136 whole entry): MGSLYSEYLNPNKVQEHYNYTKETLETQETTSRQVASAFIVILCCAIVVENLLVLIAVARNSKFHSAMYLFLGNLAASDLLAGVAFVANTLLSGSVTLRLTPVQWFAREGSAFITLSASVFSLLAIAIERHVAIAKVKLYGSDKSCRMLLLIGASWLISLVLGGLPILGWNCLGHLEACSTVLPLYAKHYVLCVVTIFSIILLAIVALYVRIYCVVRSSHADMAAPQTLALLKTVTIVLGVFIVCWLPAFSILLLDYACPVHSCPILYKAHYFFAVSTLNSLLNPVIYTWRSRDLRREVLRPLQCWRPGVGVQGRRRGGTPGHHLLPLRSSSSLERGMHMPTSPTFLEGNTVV

cells [11] = conditions: HEK293
cells [12] = conditions: A549
cells [13] = experiment: cells
Vero [14] = experiment: inhibition of WNV-induced cytopathic effect – cell-based, CPE readout (AID 1621); type: functional; conditions: Chlorocebus sabaeus
[15] = Luminescence Cell-Based Dose Confirmation HTS to Identify Inhibitors of Polyadenylation.; type: functional
[16] = target: T4, Dual specificity protein phosphatase 6 (Rattus norvegicus, UniProt Q64346); experiment: inhibition of rat DUSP6 enzyme activity – biochemical, in vitro, primary screen (AID 425)
T4 sequence (Q64346 whole entry): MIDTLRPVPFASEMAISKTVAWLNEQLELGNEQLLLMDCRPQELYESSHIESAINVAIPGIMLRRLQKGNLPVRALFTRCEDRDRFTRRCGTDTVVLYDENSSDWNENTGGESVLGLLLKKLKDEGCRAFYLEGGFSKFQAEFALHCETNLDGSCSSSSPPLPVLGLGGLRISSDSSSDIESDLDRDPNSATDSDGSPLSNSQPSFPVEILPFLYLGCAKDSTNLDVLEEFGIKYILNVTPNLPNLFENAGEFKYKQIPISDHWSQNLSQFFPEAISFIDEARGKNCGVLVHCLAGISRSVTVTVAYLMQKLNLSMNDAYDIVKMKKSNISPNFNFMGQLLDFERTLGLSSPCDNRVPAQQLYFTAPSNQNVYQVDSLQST

[17] = target: Heat shock protein HSP 90-alpha (Homo sapiens, UniProt P07900); type: functional, organism-based
[18] = microbe, parasite or virus in culture; type: functional; conditions: Mycobacterium tuberculosis
[19] = A High Throughput Confirmatory Assay used to Identify Novel Compounds that Inhibit Mycobacterium Tuberculosis in the absence of Glycerol.; type: functional
[20] = target: Protein-tyrosine kinase 2-beta (Homo sapiens, UniProt Q14289);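 note: potency of inhibitors of PYK2 kinase phosphorylation of poly-GT substrate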
Protein-tyrosine kinase 2-beta, sequence (Q14289 whole entry): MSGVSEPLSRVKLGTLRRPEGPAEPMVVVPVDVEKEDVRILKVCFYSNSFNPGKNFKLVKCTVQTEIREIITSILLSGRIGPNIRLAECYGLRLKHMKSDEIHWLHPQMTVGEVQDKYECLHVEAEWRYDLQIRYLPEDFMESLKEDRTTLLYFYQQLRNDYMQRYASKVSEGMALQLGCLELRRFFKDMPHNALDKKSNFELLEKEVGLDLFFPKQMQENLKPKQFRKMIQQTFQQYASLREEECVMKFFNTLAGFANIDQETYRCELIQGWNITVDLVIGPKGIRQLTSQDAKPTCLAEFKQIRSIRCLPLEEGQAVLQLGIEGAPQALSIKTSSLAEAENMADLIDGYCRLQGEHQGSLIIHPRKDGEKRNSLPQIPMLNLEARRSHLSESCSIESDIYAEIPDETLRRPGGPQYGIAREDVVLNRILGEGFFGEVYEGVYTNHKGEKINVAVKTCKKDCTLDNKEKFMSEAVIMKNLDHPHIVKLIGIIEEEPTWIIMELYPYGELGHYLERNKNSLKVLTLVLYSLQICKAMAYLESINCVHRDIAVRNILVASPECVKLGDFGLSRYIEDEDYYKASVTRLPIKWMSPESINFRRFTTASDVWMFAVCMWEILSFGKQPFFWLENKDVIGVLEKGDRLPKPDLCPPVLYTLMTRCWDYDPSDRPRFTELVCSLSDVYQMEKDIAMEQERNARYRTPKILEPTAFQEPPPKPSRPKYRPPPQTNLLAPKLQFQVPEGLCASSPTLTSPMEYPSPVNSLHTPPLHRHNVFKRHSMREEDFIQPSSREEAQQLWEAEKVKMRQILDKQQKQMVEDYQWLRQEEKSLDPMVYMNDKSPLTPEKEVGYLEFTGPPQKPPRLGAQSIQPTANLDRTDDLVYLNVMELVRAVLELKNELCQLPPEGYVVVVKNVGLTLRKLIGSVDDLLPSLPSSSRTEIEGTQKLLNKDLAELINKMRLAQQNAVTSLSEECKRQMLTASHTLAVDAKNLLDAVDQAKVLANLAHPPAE

Cytochrome P450 2C9 = Cytochrome P450 2C9 (Homo sapiens, UniProt P11712)
Cytochrome P450 2C9, sequence (P11712 whole entry): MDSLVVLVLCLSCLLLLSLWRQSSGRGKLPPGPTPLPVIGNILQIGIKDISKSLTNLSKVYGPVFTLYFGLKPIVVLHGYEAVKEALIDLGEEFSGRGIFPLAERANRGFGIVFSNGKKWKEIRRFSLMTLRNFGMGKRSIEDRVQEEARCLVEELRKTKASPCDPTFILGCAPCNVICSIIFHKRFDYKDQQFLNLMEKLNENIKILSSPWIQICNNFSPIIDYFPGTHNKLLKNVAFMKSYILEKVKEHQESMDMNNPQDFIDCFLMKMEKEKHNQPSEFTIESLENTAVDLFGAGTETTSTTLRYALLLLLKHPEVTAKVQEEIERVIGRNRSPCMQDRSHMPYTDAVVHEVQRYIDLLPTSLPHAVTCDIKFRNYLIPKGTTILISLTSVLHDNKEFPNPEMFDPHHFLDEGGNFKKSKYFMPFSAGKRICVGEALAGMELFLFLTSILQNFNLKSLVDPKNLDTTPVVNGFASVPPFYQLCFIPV

[21] = target: T5, Low molecular weight phosphotyrosine protein phosphatase (Homo sapiens, UniProt P24666); experiment: inhibition of LMPTP-A enzymatic activity – biochemical, OMFP substrate, fluorescence intensity, set 2, dose response (AID 743307); type: functional
T5 sequence (P24666 whole entry): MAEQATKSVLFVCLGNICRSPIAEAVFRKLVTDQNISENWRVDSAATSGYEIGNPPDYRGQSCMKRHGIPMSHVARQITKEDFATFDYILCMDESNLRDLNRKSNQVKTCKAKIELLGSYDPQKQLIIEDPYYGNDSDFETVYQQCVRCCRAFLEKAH

[22] = target: T5, Low molecular weight phosphotyrosine protein phosphatase; type: functional; conditions: read-out: IC50_Mean
[23] = target: T6, DNA repair and recombination protein RAD54-like (Homo sapiens, UniProt Q92698); experiment: RAD54 Holliday junction migration blockers – biochemical, fluorescence, cherry-picked samples, dose series, confirmation (AID 651657); type: functional
T6 sequence (Q92698 whole entry): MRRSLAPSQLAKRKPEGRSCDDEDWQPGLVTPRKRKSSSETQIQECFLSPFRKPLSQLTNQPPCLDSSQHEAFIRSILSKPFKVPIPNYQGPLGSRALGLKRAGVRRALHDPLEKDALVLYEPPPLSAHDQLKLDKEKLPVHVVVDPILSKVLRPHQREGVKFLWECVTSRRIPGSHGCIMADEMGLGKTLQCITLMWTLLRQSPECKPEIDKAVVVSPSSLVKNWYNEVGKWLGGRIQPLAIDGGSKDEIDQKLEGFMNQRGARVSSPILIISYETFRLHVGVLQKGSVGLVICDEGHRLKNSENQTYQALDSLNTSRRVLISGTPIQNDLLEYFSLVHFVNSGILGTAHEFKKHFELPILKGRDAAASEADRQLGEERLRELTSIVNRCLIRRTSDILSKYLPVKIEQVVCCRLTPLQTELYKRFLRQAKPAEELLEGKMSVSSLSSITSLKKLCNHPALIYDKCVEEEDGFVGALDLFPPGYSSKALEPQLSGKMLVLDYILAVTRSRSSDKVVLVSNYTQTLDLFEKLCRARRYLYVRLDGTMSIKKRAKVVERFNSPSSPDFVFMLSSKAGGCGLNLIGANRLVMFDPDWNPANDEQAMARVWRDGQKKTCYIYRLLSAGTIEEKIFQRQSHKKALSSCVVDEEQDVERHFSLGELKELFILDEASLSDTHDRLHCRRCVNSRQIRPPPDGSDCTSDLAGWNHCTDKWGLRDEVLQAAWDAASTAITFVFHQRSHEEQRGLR

[24] = acridine orange displacement from DNA – biochemical, fluorescence polarization, cherry-pick, artefact control for RAD54 inhibitor project, dose response (AID 651673); type: functional
[25] = target: T5, Low molecular weight phosphotyrosine protein phosphatase; type: functional; conditions: read-out: IC50_Mean; remark: listed apart in the source
[26] = target: T7, DNA repair protein RAD52 homolog (Homo sapiens, UniProt P43351); type: functional, biochemical
T7 sequence (P43351 whole entry): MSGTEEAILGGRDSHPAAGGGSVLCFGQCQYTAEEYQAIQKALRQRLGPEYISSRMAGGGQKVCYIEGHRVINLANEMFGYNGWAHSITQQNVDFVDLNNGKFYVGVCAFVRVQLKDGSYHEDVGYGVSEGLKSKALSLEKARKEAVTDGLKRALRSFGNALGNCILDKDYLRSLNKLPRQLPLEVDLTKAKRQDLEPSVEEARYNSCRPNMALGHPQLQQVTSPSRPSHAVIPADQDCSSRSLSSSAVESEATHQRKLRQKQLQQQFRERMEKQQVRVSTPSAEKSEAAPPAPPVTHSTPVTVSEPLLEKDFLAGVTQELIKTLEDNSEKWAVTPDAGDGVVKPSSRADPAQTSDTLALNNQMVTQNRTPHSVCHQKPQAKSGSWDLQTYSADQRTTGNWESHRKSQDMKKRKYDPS

[27] = Counterscreen for activators of the function of SWI/SNF related, matrix associated, actin dependent regulator of chromatin, subfamily a, member 2 (SMARCA2, BRM): Luminescence-based cell-based high throughput dose response assay to identify non-selective compounds using the VP16 reporter assay.; type: functional
[28] = target: T5, Low molecular weight phosphotyrosine protein phosphatase; experiment: inhibition of human LMPTP enzyme activity – biochemical, absorbance, pNPP substrate, LMPTP-A isoform, set 2, orthogonal assay, dose response (AID 743308); type: functional
[29] = target: SWI/SNF-related matrix-associated actin-dependent regulator of chromatin subfamily A member 2 (Homo sapiens, UniProt P51531); experiment: Luminescence-based cell-based high throughput dose response assay to identify activators of the function of SWI/SNF related, matrix associated, actin dependent regulator of chromatin, subfamily a, member 2 (SMARCA2, BRM).; type: functional

O=C(NC1C=CS(=O)(=O)C1)c1sc2ccccc2c1Cl (stereo not given)
IC50 [1]: 2.82 µM (active) | CC50 (Vero [2]): 23.9 µM (active) | IC50 (Vero [3]): > 25 µM (active)

O=C(Nc1nccs1)c1nc(-c2ccccc2)n(-c2ccccc2)n1
EC50 (Estrogen receptor): 18.6 µM (active)

CC1Cc2ccccc2N1C(=O)c1ccc(N2CCCC2)c([N+](=O)[O-])c1 (stereo not given)
IC50 [4]: 51 µM (active)

COc1ccc(N2CSC3=C(C#N)C(c4cc(OC)c(OC)cc4OC)CC(=O)N3C2)c(OC)c1 (stereo not given)
IC50 [5]: 11.3 µM (active) | IC50 [6]: 42.5 µM (inactive) | IC50 [7]: 4.3 µM (active) | IC50 [8]: 42.3 µM (active)

CC(=O)Nc1cccc(C(=O)/C=C/c2ccc(F)cc2)c1
CC50 (Vero [9]): 20.6 µM (active)

CCOC(=O)OCC1OC(c2ccccc2)C=CC1Oc1cccc(N(C)C)c1 (stereo not given)
AC50 (Cytochrome P450 2C19): 3.16 µM (inconclusive) | AC50 (Cytochrome P450 3A4): 3.16 µM (inconclusive)

Cc1cc(C(=O)CN2C(=O)NC(Cc3ccccc3)C2=O)c(C)n1Cc1ccccc1 (stereo not given)
EC50 [10]: > 30 µM (not active)

Cc1cccn2c(=O)c3cc(C(=O)NCCN4CCOCC4)c(=N)n(Cc4ccc(F)cc4)c3nc12
CC50 (Vero [2]): > 25 µM (active) | AC50 (cells [11]): 48.4 µM (active) | AC50 (cells [12]): 18.3 µM (active) | IC50 (Vero [3]): > 25 µM (active) | AC50 (cells [13]): 1.96 µM (active) | IC50 (Vero [14]): 25.6 µM (active)

COc1cc(C2CC(=O)Oc3c(C(CCN4CCOCC4)c4ccc(N(C)C)cc4)c(OC)cc(OC)c32)cc(OC)c1OC (stereo not given)
EC50 [15]: > 120 µM (not active)

COc1ccc(Cn2c(C)nc3c(c2=O)c2nc4ccccc4nc2n3Cc2ccco2)cc1
IC50 [16]: 6.78 µM (active)

O=C(OCC(=O)N1CCN(C(=O)c2ccco2)CC1)c1cc(-c2cccc(Br)c2)nc2ccccc12
AC50 [17]: 4.25 µM (active) | CC50 [18]: 14.4 µM (active) | IC50 [19]: > 100 µM (active)

COc1ccc(-c2coc3cc4oc(=O)cc(C)c4cc23)cc1F
IC50 [20]: 12.5 µM (not active) | AC50 (Cytochrome P450 2C9): 5.01 µM (inconclusive)

c1ccc(-c2cc(NCCN3CCCCC3)c3ccccc3n2)cc1
IC50 [21]: 3.7 µM (active) | IC50 [22]: 5.8 µM (active) | AC50 [23]: 4.86 µM (active) | AC50 [24]: 58.8 µM (active) | IC50 [25]: 3.49 µM (active) | AC50 [26]: < 3.63 µM (active) | EC50 [27]: > 91.2 µM (inactive) | IC50 [28]: 8.37 µM (active) | EC50 [29]: 10.9 µM (inactive)
